Test results reported in article PMC6063448, “Antimicrobial activity of linear lipopeptides derived from BP100 towards plant pathogens” (PLoS ONE, 2018).

How the values were obtained:
[1] = test system: Erwinia amylovora PMV6076; experiment: MIC, growth inhibition in microtiter plates (TSB); assay type: cell-based; settings: Ea, 25°C, 48 h, OD 600 nm, lowest concentration with no growth, given as interval of tested concentrations, three replicates, experiment repeated twice
From the text: (§1) The following plant pathogenic bacterial strains were used: Erwinia amylovora PMV6076 (Institut National de la Recherche Agronomique, Angers, France), Pseudomonas syringae pv. syringae EPS94 (Institut de Tecnologia Agroalimentària, Universitat de Girona, Spain), Xanthomonas axonopodis pv. vesicatoria 2133–2, Pseudomonas syringae pv. actinidiae Psa3700.1.1, Xanthomonas fragariae Xf349-9A (Instituto Valenciano de Investigaciones Agrarias, Valencia, Spain), and Xanthomonas arboricola pv. pruni CFBP5563 (Collection Française de Bactéries associées aux Plantes, Angers, France). All bacteria except for X. fragariae were stored in Luria Bertani (LB) broth supplemented with glycerol (20%) and maintained at -80°C. For X. fragariae, Medium B [46] was used instead of LB. E. amylovora, X. arboricola pv. pruni, P. syringae pv. syringae and P. syringae pv. actinidiae were scrapped from the agar media after growing for 24 h at 25°C, and X. axonopodis pv. vesicatoria and X. fragariae after growing for 48 h at 25°C. The cell material was suspended in sterile water to obtain a suspension of 10^8 CFU mL^-1.
(§2) Lyophilized peptides were solubilized in sterile Milli-Q water to a final concentration of 1 mM and filter sterilized through a 0.22-μm pore filter. […] For antibacterial activity 20 μL of each dilution were mixed in a microtiter plate well with 20 μL of the corresponding suspension of the bacterial indicator, 160 μL of Trypticase Soy Broth (TSB) (BioMèrieux, France) to a total volume of 200 μL. For antifungal activity 20 μL of each stock solution were mixed in a microtiter plate well with 80 μL of the corresponding suspension of the fungal pathogen and 100 μL of double concentrated Potato Dextrose Broth (PDB) to a total volume of 200 μL containing 0.003% w/v of chloramphenicol to prevent bacterial contamination.
(§3) Three replicates for each combination of strain, compound and concentration were used. Microbial growth was determined by optical density measurement at 600 nm (Bioscreen C, Labsystem, Helsinki, Finland). For antibacterial activity microplates were incubated at 25°C with 20 s shaking before hourly absorbance measurement for 48 h. For antifungal activity microplates were incubated at 22°C with 1 min shaking before absorbance measurement that were done every two hours during seven days. The experiment was repeated twice. The MIC was taken as the lowest compound concentration with no growth at the end of the experiment.

[2] = test system: Pseudomonas syringae pv. actinidiae Psa3700.1.1; experiment: MIC, growth inhibition in microtiter plates (TSB); assay type: cell-based; settings: Psa, 25°C, 48 h, OD 600 nm, lowest concentration with no growth, given as interval of tested concentrations, three replicates, experiment repeated twice
From the text: as §1, §2, §3

[3] = test system: Pseudomonas syringae pv. syringae EPS94; experiment: MIC, growth inhibition in microtiter plates (TSB); assay type: cell-based; settings: Pss, 25°C, 48 h, OD 600 nm, lowest concentration with no growth, given as interval of tested concentrations, three replicates, experiment repeated twice
From the text: as §1, §2, §3

[4] = test system: Xanthomonas arboricola pv. pruni CFBP5563; experiment: MIC, growth inhibition in microtiter plates (TSB); assay type: cell-based; settings: Xap, 25°C, 48 h, OD 600 nm, lowest concentration with no growth, given as interval of tested concentrations, three replicates, experiment repeated twice
From the text: as §1, §2, §3

[5] = test system: Xanthomonas axonopodis pv. vesicatoria 2133–2; experiment: MIC, growth inhibition in microtiter plates (TSB); assay type: cell-based; settings: Xav, 25°C, 48 h, OD 600 nm, lowest concentration with no growth, given as interval of tested concentrations, three replicates, experiment repeated twice
From the text: as §1, §2, §3

[6] = test system: Xanthomonas fragariae Xf349-9A; experiment: MIC, growth inhibition in microtiter plates (TSB); assay type: cell-based; settings: Xf, 25°C, 48 h, OD 600 nm, lowest concentration with no growth, given as interval of tested concentrations, three replicates, experiment repeated twice
From the text: as §1, §2, §3

[7] = test system: Fusarium oxysporum f. sp. lycopersici FOL 3 race 2; experiment: MIC, antifungal growth inhibition in microtiter plates (PDB); assay type: cell-based; settings: Fo, 22°C, seven days, OD 600 nm, lowest concentration with no growth, given as interval of tested concentrations, three replicates, experiment repeated twice
Method: (§4) The following plant pathogenic fungal strains were used: Penicillium expansum EPS26 (Institut de Tecnologia Agroalimentària, Universitat de Girona, Spain) and Fusarium oxysporum f. sp. lycopersici FOL 3 race 2 (ATCC 201829, American Type Culture Collection,Virginia, EEUU). Strains were cultured on potato dextrose agar (PDA) plates (Difco). Conidia from P. expansum and microconidia from F. oxysporum were obtained from 5–7 day-old agar Potato Dextrose (PDA) cultures after growth at 25°C. Inoculum was prepared by scraping spore material from culture surfaces with a cotton swab and resuspending it in distilled water containing 0.5‰ of tween 80. The suspensions were filtered through Miracloth (Merk, Millipore) and the concentration of conidia was determined using a hemacytometer and adjusted to 10^4 conidia mL^-1 for F. oxysporum and to 10^3 conidia mL^-1 for P. expansum.
as §2, §3

[8] = test system: Penicillium expansum EPS26; experiment: as above; assay type: cell-based; settings: Pe, 22°C, seven days, OD 600 nm, lowest concentration with no growth, given as interval of tested concentrations, three replicates, experiment repeated twice
Method: as §4, §2, §3

[9] = test system: defense-related genes in tomato plants; experiment: Induction of defense gene expression of tomato plants (RT-qPCR); assay type: in vivo, tomato cv. Rio Grande; settings: tomato leaves sprayed, 24 h; peptides and flg15 125 μM, JA 2.5 mM, ASM 300 mg/L; ΔΔCt relative to actin; above 2 = overexpression
Method: Seeds of tomato cv. Rio Grande plants were sown in hydroponic seed plugs (rockwool), germinated and grown under controlled greenhouse conditions (25 ± 2°C, 16 h light / 15 ± 2°C, 8 h dark, and 60% RH). Two-week old seedlings (two cotyledons) were transplanted into rockwool plugs (7.5×7.5×6.5 cm, Grodan Iberica). The experimental design consisted of three replicates of three plants per treatment. After two weeks, tomato leaves were sprayed with aqueous solutions of BP100, 9 selected derivatives and flg15 at 125 μM, jasmonic acid at 2.5 mM (Sigma-Aldrich, Sant Louis, Missouri, UE), and acybenzolar-S-methyl at 300 mg/L (Syngenta, Basel, Switzerland), until the run-off point. Water-sprayed plants were used as not treated controls. Twenty-four hours after product application leaf samples were collected and processed to extract RNA for RT-qPCR assays. Plant material was ground to a fine powder in liquid nitrogen with the Tissuelyzer II system (Qiagen). Total RNA was extracted from leaves using PureLink Plant RNA Reagent (Invitrogen, Life Technologies) according to the manufacturer’s manual. The RNA was solubilized in RNAse free water and was routinely subjected to DNAse treatment (Ambion® Turbo DNA-free™, Life Technologies) to remove any contaminant DNA. In each step, the RNA was quantified using a Nanodrop N-2000 spectrophotometer, and its integrity verified by denaturing agarose gel electrophoresis. First-strand of complementary DNA (cDNA) was generated from leave RNA using reverse transcriptase (High Capacity cDNA Reverse Transcription Kit, Invitrogen) according to the manufacturer’s manual.
To test gene defense induction in the treated tomato plants, a qPCR assay was performed. Quantitative PCR was carried out in a fluorometric thermal cycler (qPCR Quant Studio 5, Applied Biosystems) by using a Mix SYBR®Green PCR Master Mix (Applied Biosystems). The total reaction volume of this PCR reaction was 20 μL and the reaction mixture was 1 μL of each primer set at the adequate concentration, 10 μL of MixSyber Green, 6 μL of distilled water and 2 μL of cDNA. Melting curve analysis was performed after amplification to verify amplification specificity. A constitutive gene (actin gene) was used as reference control, and the following genes implicated in plant defense response were analyzed: Pathogenesis-related protein-1 (PR1), Harpin (Harp), Polyphenol oxidase (PPO), Subtilisin-like protease (Sub1), Blue copper binding-protein (BCB), Osmotin (Osm2), Acidic β-1,3 endoglucanase (GluA), Lypoxigenase (LOX), Protein inhibitor II (PinII), Dehydrin (Tas14) and Ethylene response transcription factor (ERT3). […] For each gene system, the concentration of the primer pair was optimized. The primer concentration was 100 nM for all the genes except for the GluA, Harp, PR1 and actin genes which optimized concentration was 300 nM. A calibration curve was prepared by cloning the corresponding DNA in the pSpark cloning vector (Canvax, Córdoba, Spain) according to the manufacturer instructions, which was then used to transform E. coli DH5α by standard procedures. The number of plasmid copies were quantified after purification from E. coli (QIAGEN Iberia, S. L., Madrid, Spain), and appropriate dilutions were prepared to obtain the standard curve. […] Relative quantification of gene expression was done using the ΔΔCt method. Each biological repetition treatment was analyzed in duplicate. The mean of the Ct values obtained were used to estimate the fold change value of the endogenous reference gene (actin) and the target plant defense genes.

| Structure (SMILES) | MIC [1] | MIC [2] | MIC [3] | MIC [4] | MIC [5] | MIC [6] | MIC [7] | MIC [8] | BCB gene expression, fold induction [9] | ERT3 gene expression, fold induction [9] | GluA gene expression, fold induction [9] | Harp gene expression, fold induction [9] | LOX gene expression, fold induction [9] | Osm2 gene expression, fold induction [9] | PPO gene expression, fold induction [9] | PR1 gene expression, fold induction [9] | PinII gene expression, fold induction [9] | Sub1 gene expression, fold induction [9] | Tas14 gene expression, fold induction [9] |
| --- | --- | --- | --- | --- | --- | --- | --- | --- | --- | --- | --- | --- | --- | --- | --- | --- | --- | --- | --- |
| CCCCCCCCCCCC(=O)NCCCC[C@H](NC(C)=O)C(=O)N[C@@H](CCCCN)C(=O)N[C@@H](CC(C)C)C(=O)N[C@@H](Cc1ccccc1)C(=O)N[C@@H](CCCCN)C(=O)N[C@@H](CCCCN)C(=O)N[C@H](C(=O)N[C@@H](CC(C)C)C(=O)N[C@@H](CCCCN)C(=O)N[C@@H](Cc1ccc(O)cc1)C(=O)N[C@@H](CC(C)C)C(N)=O)[C@@H](C)CC [BP392, Ac-K(COC11H23)KLFKKILKYL-NH2] | >25 µM | >25 µM | >25 µM | 3.1 to 6.2 µM | 3.1 to 6.2 µM | 0.8 to 1.6 µM | 6.2 to 12.5 µM | >25 µM |  |  |  |  |  |  |  |  |  |  |  |
| CCCCCCCCCCCC(=O)NCCCC[C@H](NC(=O)[C@H](CCCCN)NC(=O)[C@H](Cc1ccccc1)NC(=O)[C@H](CC(C)C)NC(=O)[C@H](CCCCN)NC(=O)[C@H](CCCCN)NC(C)=O)C(=O)N[C@H](C(=O)N[C@@H](CC(C)C)C(=O)N[C@@H](CCCCN)C(=O)N[C@@H](Cc1ccc(O)cc1)C(=O)N[C@@H](CC(C)C)C(N)=O)[C@@H](C)CC [BP397, Ac-KKLFKK(COC11H23)ILKYL-NH2] | >25 µM | >25 µM | >25 µM | 3.1 to 6.2 µM | 6.2 to 12.5 µM | 1.6 to 3.1 µM | 6.2 to 12.5 µM | 12.5 to 25 µM |  |  |  |  |  |  |  |  |  |  |  |
| CCCC(=O)NCCCC[C@H](NC(=O)[C@H](CC(C)C)NC(=O)[C@@H](NC(=O)[C@H](CCCCN)NC(=O)[C@H](CCCCN)NC(=O)[C@H](Cc1ccccc1)NC(=O)[C@H](CC(C)C)NC(=O)[C@H](CCCCN)NC(=O)[C@H](CCCCN)NC(C)=O)[C@@H](C)CC)C(=O)N[C@@H](Cc1ccc(O)cc1)C(=O)N[C@@H](CC(C)C)C(N)=O [BP388, Ac-KKLFKKILK(COC3H7)YL-NH2] | 3.1 to 6.2 µM | 6.2 to 12.5 µM | 6.2 to 12.5 µM | 3.1 to 6.2 µM | 1.6 to 3.1 µM | 1.6 to 3.1 µM | 0.8 to 1.6 µM | 6.2 to 12.5 µM |  |  |  |  |  |  |  |  |  |  |  |
| CCCC(=O)NCCCC[C@H](NC(=O)[C@H](CCCCN)NC(=O)[C@H](CCCCN)NC(=O)[C@H](Cc1ccccc1)NC(=O)[C@H](CC(C)C)NC(=O)[C@H](CCCCN)NC(=O)[C@H](CCCCN)NC(C)=O)C(=O)N[C@@H](CC(C)C)C(=O)N[C@@H](CCCCN)C(=O)N[C@@H](Cc1ccc(O)cc1)C(=O)N[C@@H](CC(C)C)C(N)=O [BP386, Ac-KKLFKKK(COC3H7)LKYL-NH2] | 12.5 to 25 µM | 6.2 to 12.5 µM |  | 12.5 to 25 µM | 12.5 to 25 µM | 12.5 to 25 µM | 12.5 to 25 µM | >25 µM |  |  |  |  |  |  |  |  |  |  |  |
| CC/C=C\C[C@H]1C(=O)CC[C@@H]1CC(=O)O [JA, jasmonic acid, reference compound] |  |  |  |  |  |  |  |  | 6.6 | 41.3 | 0.2 | 1.9 | 9.7 | 48.4 | >50 | 2.9 | >50 | 3.9 | 0.88 |
| CSC(=O)c1cccc2nnsc12 [ASM, acybenzolar-S-methyl, reference compound] |  |  |  |  |  |  |  |  | 12.1 | 2.9 | 5.9 | 6.3 | 3.3 | 8.7 | 2.9 | 4.8 | 0.5 | 11.6 | 10.7 |
